One may read the Ki as the equilibrium dissociation constant of an inhibitor or competing ligand from its target. A higher Ki goes with a looser hold on the target.

In assay [1] the test system is CCR2. Put plainly: Pharmacokinetics-based prediction of target occupancy. Further details: species or system mouse. As to conditions: calculated/simulated from plasma concentrations, single dose 5 mg/kg i.p., for 24 hours. On the procedure:
The target occupancy was calculated for each measurement of the drug concentration, according to equation (1), in which [C] is the concentration of the drug in the blood and KD is the drug target affinity.1 TargetOccupancy(%)=[C]/[C]+KD×100%
In addition, a simple mathematical model was used to simulate target occupancy for the observed in vivo pharmacokinetics and in vitro binding kinetics according to the equations in the next section (equations (3–5)).
To determine the maximal value of k off that would prolong the receptor occupancy even further, we used equation (2)[28], in which BF represents the percentage of target occupancy divided by 100 and t 1/2el represents the plasma elimination half-life (0.693/k el). In this case we set BF to 0.90, as 90% represents the minimum value of target occupancy to achieve efficacy. To obtain the elimination rate constant of compound 15a, a linear regression analysis of the natural logarithm of the concentrations versus time was performed, and the slope coefficient was used as the elimination rate constant k el.2 koff<0.693⋅(1−BF)/t1/2el
The concentrations of unbound drug in the blood [C] and target-bound drug [LR] were modeled according to equations (3–5). […]
The concentration of the target-bound drug is calculated according to equation (5):5 d[LR]/dt=kon⋅[C]⋅[Rfree]−koff⋅[LR] […]

Assay [2] addresses T1, murine CCR2 (mCCR2) (Mus musculus, UniProt P51683).
T1 construct: expressed in transfected cells; host or cells: CHO cells, transient transfection (PEI) with pcDNA3.1+ plasmid; membrane preparation
Nature of the assay: [3H]INCB3344 displacement assay on CHO-mCCR2 membranes. The format is binding. As to conditions: displacement of 5 nM [3H]INCB3344, CHO-mCCR2 membranes, 25 °C. On the procedure:
Radioligand binding assays were performed in a 100 µL reaction volume containing 50 mM Tris-HCl buffer (pH 7.4), 5 mM MgCl2, 0.1% 3-[(3-cholamidopropyl)-dimethylammonio]-1-propanesulfonic acid (CHAPS), 5 nM [^3H]INCB3344 and 50 to 60 µg of membrane protein at 25 °C. Non-specific binding was determined with 10 μM of the cold ligand INCB3344. Displacement assays were carried out using 9 concentrations of competing ligand, ranging from 0.1 nM to 100 μM, for 120 min of incubation. The kinetic parameters of 15a were also determined at 25 °C using a competition association assay as previously described, [27]. […] Filter-bound radioactivity was determined by scintillation spectrometry after addition of Microscint scintillation cocktail (Perkin-Elmer, Groningen, the Netherlands). […]
All radioligand binding assays were analyzed using Prism 6.0 (GraphPad software, San Diego, CA, USA). […] Ki values were calculated from IC50 values obtained by non-linear regression analysis of the displacement assays and by using the Cheng-Prusoff equation[47]. Dissociation rate constants k off were determined by fitting the dissociation data using an exponential decay model. […] The kinetic profile of compound 15a was determined by calculation of its kinetic rate index (KRI) value. […] In addition, the RT was calculated by obtaining the reciprocal of the k off. Data obtained from in vivo experiments are expressed as mean ± SEM. […]

T1 sequence (P51683 whole entry): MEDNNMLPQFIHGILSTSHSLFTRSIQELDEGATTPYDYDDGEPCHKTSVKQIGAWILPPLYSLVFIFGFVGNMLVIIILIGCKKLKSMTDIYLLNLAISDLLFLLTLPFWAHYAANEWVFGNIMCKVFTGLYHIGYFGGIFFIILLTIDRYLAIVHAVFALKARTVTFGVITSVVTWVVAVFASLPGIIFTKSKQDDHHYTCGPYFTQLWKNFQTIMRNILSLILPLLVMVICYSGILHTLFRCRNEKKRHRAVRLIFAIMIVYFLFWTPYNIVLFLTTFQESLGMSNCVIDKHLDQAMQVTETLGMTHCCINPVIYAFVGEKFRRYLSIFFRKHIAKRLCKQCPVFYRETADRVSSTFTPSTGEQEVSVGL

In the case of `CC(C)[C@]1(C(=O)N2CCc3ccc(C(F)(F)F)cc3C2)CC[C@@H](N[C@@H]2CCc3cc(Br)ccc32)C1` [15a, ((1S,3R)-3-(((R)-5-bromo-2,3-dihydro-1H-inden-1-yl)amino)-1-isopropylcyclopentyl)(7-(trifluoromethyl)-3,4-dihydroisoquinolin-2(1H)-yl)methanone], in assay [1], the “target occupancy (CCR2)” value is above 90%. The inhibition constant Ki in assay [2] was determined as 0.0106 µM.

Values taken from PMC5427923, “A novel CCR2 antagonist inhibits atherogenesis in apoE deficient mice by achieving high receptor occupancy” (Scientific Reports, 2017).
